Measurements published in patent publication US9567524B2, “Polymerizable liquid crystal compound, and compensation film, antireflective film, and display device including the same” (SAMSUNG ELECTRONICS CO., LTD., priority 2015, dated 2017).

Test: Thermogravimetric analysis (TGA), thermal stability
Assay type: physicochemical
Conditions: Trios V3.0, 10° C./min, N2 atmosphere; FIG. 7
Protocol: Thermogravimetric analysis (TGA) and differential scanning calorimetry (DSC) analysis of the polymerizable liquid crystal compound according to Synthesis Example 1 are performed by using Trios V3.0 (TA Instrument, 10° C./min, N2 atmosphere). FIG. 7 is a drawing showing the thermogravimetric analysis of the polymerizable liquid crystal compound 1a-5 according to Synthesis Example 1, and FIG. 8 is a drawing showing the differential scanning calorimetry (DSC) analysis of the polymerizable liquid crystal compound 1a-5 according to Synthesis Example 1.
Referring to FIG. 7, the polymerizable liquid crystal compound 1a-5 of Synthesis Example 1 is decomposed at a temperature of greater than or equal to 300° C.

With `C=CC(=O)OCCCOc1ccc(C(=O)OCc2ccc(C(=O)Oc3ccc(OC(=O)c4ccc(COC(=O)c5ccc(OCCCOC(=O)C=C)cc5)cc4)cc3)cc2)cc1` [Compound 1a-5] the “Decomposition temperature (TGA)” value was “greater than or equal to 300 °C”.
